Converted amounts (≈) assume the structure as drawn.
Assays:
Intracellularum = assay: Widened tuberculostatic tests; format: cell-based, Mycobacterium
[1] = tested on: M. tuberculosis wild-type strain sp. 192 fully sensitive; assay: Tuberculostatic activity, test-tube successive dilution in Youmans' medium; format: cell-based; details: Mycobacterium tuberculosis
Smegmatis = assay: Widened tuberculostatic tests; format: cell-based, Mycobacterium
Kansasii = assay: Widened tuberculostatic tests; format: cell-based, Mycobacterium
Fortuitum = assay: Widened tuberculostatic tests; format: cell-based, Mycobacterium
[2] = tested on: M. tuberculosis H37Rv strain; assay: Tuberculostatic activity, test-tube successive dilution in Youmans' medium; format: cell-based; details: Mycobacterium tuberculosis
An5 = assay: Widened tuberculostatic tests; format: cell-based, Mycobacterium
Scrofulaceum = assay: Widened tuberculostatic tests; format: cell-based, Mycobacterium
Phlei = assay: Widened tuberculostatic tests; format: cell-based, Mycobacterium
H37Rv = assay: Widened tuberculostatic tests; format: cell-based, Mycobacterium
Kirchberg = assay: Widened tuberculostatic tests; format: cell-based, Mycobacterium
Wells = assay: Widened tuberculostatic tests; format: cell-based, Mycobacterium
[3] = tested on: A549 and HCT116 cell lines; assay: MTT cytotoxicity, summary statements without cell line; format: cell-based; details: Homo sapiens, read-out: IC 50 (ca., cell line not stated)
[4] = tested on: human non-small lung cancer cell line A549; assay: MTT viability assay; format: cell-based; details: 120 h

| Compound | MIC (Intracellularum) [μg cm^−3] | MIC [1] [µg/mL] | MIC (Smegmatis) [μg cm^−3] | MIC (Kansasii) [μg cm^−3] | MIC (Fortuitum) [μg cm^−3] | MIC [2] [µg/mL] | MIC (An5) [μg cm^−3] | MIC (Scrofulaceum) [μg cm^−3] | MIC (Phlei) [μg cm^−3] | MIC (H37Rv) [μg cm^−3] | MIC (Kirchberg) [μg cm^−3] | MIC (Wells) [μg cm^−3] | IC50 [3] [µM] | IC50 [4] [µM] |
| --- | --- | --- | --- | --- | --- | --- | --- | --- | --- | --- | --- | --- | --- | --- |
| CSC(=NNC(=O)c1ccc(Cl)cc1)SC [Compound 3, Dimethyl 4-chlorobenzoylcarbonohydrazonodithioate] | 50 | 12.5 (≈ 45.5 µM) | 100 | 25 | 100 | 6.2 (≈ 22.6 µM) | 12.5 | 100 | 100 | 12.5 | 25 | 12.5 | – | – |
| CSC(=NNC(=O)c1cccc(O)c1)SC [Compound 9, Dimethyl 3-hydroxybenzoylcarbonohydrazonodithioate] | 25 | 6.2 (≈ 24.2 µM) | – | – | 25 | 6.2 (≈ 24.2 µM) | 6.2 | 25 | – | 6.2 | – | 6.2 | – | – |
| CSC(=NNC(=O)c1ccc(Cl)c(Cl)c1)SC [Compound 5, Dimethyl 3,4-dichlorobenzoylcarbonohydrazonodithioate] | 100 | 3.1 (≈ 10 µM) | 100 | 6.2 | 100 | 6.2 (≈ 20 µM) | 12.5 | 25 | 100 | 6.2 | 12.5 | 6.2 | ~30 | – |
| CSC(=NNC(=O)c1ccc(Cl)cc1Cl)SC [Compound 4, Dimethyl 2,4-dichlorobenzoylcarbonohydrazonodithioate] | – | 6.2 (≈ 20 µM) | – | 25 | – | 6.2 (≈ 20 µM) | 6.2 | 25 | – | 6.2 | – | 12.5 | – | – |
| COc1ccc(CC(=O)NN=C(SC)SC)cc1OC [Compound 13, Dimethyl 2-(3,4-dimethoxyphenyl)acetylcarbonohydrazonodithioate] | – | 50 (≈ 159 µM) | – | – | – | 25 (≈ 79.5 µM) | – | – | – | – | – | – | – | – |
| CSC(=NNC(=O)c1ccccc1[N+](=O)[O-])SC [Compound 6, Dimethyl 2-nitrobenzoylcarbonohydrazonodithioate] | – | 50 (≈ 175 µM) | – | – | – | 25 (≈ 87.6 µM) | – | – | – | – | – | – | – | – |
| COc1cc(C(=O)NN=C(SC)SC)cc(OC)c1OC [Compound 12, Dimethyl 3,4,5-trimethoxybenzoylcarbonohydrazonodithioate] | – | 50 (≈ 151 µM) | – | – | – | 25 (≈ 75.7 µM) | – | – | – | – | – | – | – | – |
| N.N.[Cl][Pt][Cl] [Cis-Pt, Cisplatin] | – | – | – | – | – | – | – | – | – | – | – | – | – | 0.63 ± 0.018 |
| CSC(=NNC(=O)c1ccccc1O)SC [Compound 8, Dimethyl 2-hydroxybenzoylcarbonohydrazonodithioate] | – | 25 (≈ 97.5 µM) | – | – | – | – | – | – | – | – | – | – | – | – |
| CSC(=NNC(=O)c1ccccc1Cl)SC [Compound 2, Dimethyl 2-chlorobenzoylcarbonohydrazonodithioate] | – | 25 (≈ 91 µM) | – | – | – | 25 (≈ 91 µM) | – | – | – | – | – | – | – | – |
| COc1cccc2c1C(=O)c1c(O)c3c(c(O)c1C2=O)C[C@@](O)(C(=O)CO)C[C@@H]3O[C@H]1C[C@H](N)[C@H](O)[C@H](C)O1 [Dox, doxotubicin] | – | – | – | – | – | – | – | – | – | – | – | – | – | 0.008 ± 0.0011 |
| CSC(=NNC(=O)c1ccc(O)cc1)SC [Compound 10, Dimethyl 4-hydroxybenzoylcarbonohydrazonodithioate] | 100 | 6.2 (≈ 24.2 µM) | 100 | 25 | 100 | 3.1 (≈ 12.1 µM) | 6.2 | 50 | 100 | 6.2 | 50 | 12.5 | ~100 | – |
| COc1ccc(C(=O)NN=C(SC)SC)cc1 [Compound 11, Dimethyl 4-methoxybenzoylcarbonohydrazonodithioate] | – | 25 (≈ 92.5 µM) | – | – | – | 25 (≈ 92.5 µM) | – | – | – | – | – | – | – | – |
